{"source": "patent US11213542B2", "about": "“Method and agent for lowering total cholesterol levels and for improving blood lipid spectrum composition” (BIOGIX, INC., priority 2018, dated 2022)", "system": "patients with abnormal levels of lipid spectrum", "key": {"[1]": {"details": "Visit 1 (baseline), 4000 mg vitamin PP daily for 5 days"}, "[2]": {"details": "Visit 2 (5 days of supplementation), 4000 mg vitamin PP daily"}, "[3]": {"details": "Visit 3 (10 days after last dose), 15 days, 4000 mg vitamin PP daily for 5 days"}, "[4]": {"details": "Visit 4 (30 days after last dose), 35 days, 4000 mg vitamin PP daily for 5 days"}}, "note": "Where two headings read alike, the source gives them in different places. Marks after values point to notes of the source that are not given here."}
{"smiles": "O=C(O)c1cccnc1", "note": "[PP, vitamin PP]", "values": [{"measurement": "patients dropped out due to side effects", "setting": "3rd day of the trial", "value": 1, "unit": "patients"}, {"measurement": "effect on lipid spectrum (in words)", "setting": "4000 mg vitamin PP daily, 5 days", "value": "quickly lowers TC and LDL, without significantly changing the rest of the lipid spectrum parameters"}, {"measurement": "patients dropped out due to side effects", "setting": "4th day of the trial", "value": 3, "unit": "patients"}, {"measurement": "patients dropped out due to adverse effects", "setting": "PP group, 4000 mg vitamin PP daily, 5 days", "value": 12, "unit": "%"}, {"measurement": "HDL (high density lipoproteins)", "setting": "[1]", "value": 0.98, "unit": "mmol/L"}, {"measurement": "LDL (low density lipoproteins)", "setting": "[1]", "value": 3.13, "unit": "mmol/L"}, {"measurement": "La (lipoprotein a)", "setting": "[1]", "value": 36.75, "unit": "mg/dL"}, {"measurement": "TC (total cholesterol)", "setting": "[1]", "value": 6.77, "unit": "mmol/L"}, {"measurement": "TG (triglycerides)", "setting": "[1]", "value": "2.35* mmol/L"}, {"measurement": "VLDL (very low density lipoproteins)", "setting": "[1]", "value": 1.14, "unit": "mmol/L"}, {"measurement": "HDL (high density lipoproteins)", "setting": "[2]", "value": 0.99, "unit": "mmol/L"}, {"measurement": "LDL (low density lipoproteins)", "setting": "[2]", "value": 2.58, "unit": "mmol/L"}, {"measurement": "La (lipoprotein a)", "setting": "[2]", "value": 38.39, "unit": "mg/dL"}, {"measurement": "TC (total cholesterol)", "setting": "[2]", "value": 5.99, "unit": "mmol/L"}, {"measurement": "TG (triglycerides)", "setting": "[2]", "value": 2.40, "unit": "mmol/L"}, {"measurement": "VLDL (very low density lipoproteins)", "setting": "[2]", "value": 1.11, "unit": "mmol/L"}, {"measurement": "HDL (high density lipoproteins)", "setting": "[3]", "value": 0.95, "unit": "mmol/L"}, {"measurement": "LDL (low density lipoproteins)", "setting": "[3]", "value": 2.97, "unit": "mmol/L"}, {"measurement": "La (lipoprotein a)", "setting": "[3]", "value": 37.40, "unit": "mg/dL"}, {"measurement": "TC (total cholesterol)", "setting": "[3]", "value": 6.12, "unit": "mmol/L"}, {"measurement": "TG (triglycerides)", "setting": "[3]", "value": 2.33, "unit": "mmol/L"}, {"measurement": "VLDL (very low density lipoproteins)", "setting": "[3]", "value": 1.15, "unit": "mmol/L"}, {"measurement": "HDL (high density lipoproteins)", "setting": "[4]", "value": 0.99, "unit": "mmol/L"}, {"measurement": "LDL (low density lipoproteins)", "setting": "[4]", "value": 3.18, "unit": "mmol/L"}, {"measurement": "La (lipoprotein a)", "setting": "[4]", "value": 37.29, "unit": "mg/dL"}, {"measurement": "TC (total cholesterol)", "setting": "[4]", "value": 6.81, "unit": "mmol/L"}, {"measurement": "TG (triglycerides)", "setting": "[4]", "value": 2.37, "unit": "mmol/L"}, {"measurement": "VLDL (very low density lipoproteins)", "setting": "[4]", "value": 1.16, "unit": "mmol/L"}, {"measurement": "duration of efficacy", "setting": "after 5-day course of 4000 mg vitamin PP daily", "value": "≤ 10", "unit": "days"}, {"measurement": "patients dropped out due to side effects", "setting": "second day of the trial", "value": 2, "unit": "patients"}]}
